The values that follow come from patent publication US7208572B2, “Leptin-related peptides” (Albany Medical College, priority 1998, dated 2007).

Marks after values point to notes of the source that are not given here. Square brackets hold non-standard residues; d marks the D form. Ends that are not written are not given here. Peptide text beside a SMILES is read from it.

Data set [1] can be described thus: Epitope mapping: body weight and food intake in female C57BL/6J ob/ob mice, 7 daily ip injections. It counts as in vivo, mouse. The conditions noted are these: for Cumulative food intake / Percent heavier (+) or lighter (−) than initial weight / Weight gain (+) or loss (−): 1 mg/day ip; for Cumulative food intake / Percent heavier (+) or lighter (−) than initial weight / Weight gain (+) or loss (−) / Reduction of food intake / Food intake vs vehicle: 7 days; for Reduction of food intake / Weight loss: 1 mg daily; for Weight loss: after 7 days. How it is done: Animal procedures. Feeding and weighing schedules, as well as peptide administration protocols, are as described in EXAMPLE 8, supra.
Statistical analysis. Changes in body weight and differences in food intake between peptide-treated and vehicle-injected control mice were analyzed by analysis of variance (ANOVA) and considered significant when P<0.05.
Female ob/ob mice (n=6 per group) were given a single ip injection of 0.2 ml of vehicle (PBS, pH 7.2) or leptin-related synthetic peptide amide in 0.2 ml PBS for 7 consecutive days. Daily changes in body weight compared to pretreatment weights in both vehicle-injected control and peptide-treated mice are shown in FIG. 4. […] There was no evidence of weight loss in response to peptide treatment.

The nature of data set [2]: 28-day ip study of body weight and food intake in female C57BL/6J ob/ob mice. It is filed as in vivo, mouse. As to conditions: 1 mg per day ip, 28 days. The source says:
In order to examine this possibility, six overlapping peptide amides, which corresponded to amino acid residues 106 to 167 of mouse leptin, were synthesized and their effects on body weight and food intake in female C57BL/6J ob/ob mice were subsequently assessed.

Data set [3] is described as follows: 12-day ip study of body weight gain and food intake in female C57BL/6J ob/ob mice. The conditions noted are these: 1 mg/day ip, 12 days. It counts as in vivo, mouse. How it is done: The graphs show changes in body weight (expressed as percent of initial weight) and food intake (expressed as mg/gm body weight/mouse) for mice given vehicle or synthetic leptin-related peptide OB3 (1 mg/day, ip, 12 days).
Mice were injected with leptin-related synthetic peptide (1 mg/g body weight, ip) or vehicle daily for 12 consecutive days. Each bar represents mean±SEM food consumption per mouse (n=6 mice per group) after 3, 6, 9 and 12 days of treatment.
Each value represents mean±SEM change in body weight for a group of 6 mice.
Mice were injected with leptin-related synthetic peptide (1 mg/g body weight, ip) or vehicle for 12 consecutive days. Each bar and vertical line represents mean±food consumption per mouse (n=6 mice per group) after 3, 6, 9 and 12 days of treatment.

A short description of data set [4]: Short-term (7-day) toxicity study in female C57BLK/6-m wild type mice. The conditions noted are these: 1 mg/day ip, 7 days.
Experimental: Methods: OB3, [D-Leu-4]-OB3, hOB3 or vehicle was administered intraperitoneally once daily (1 mg/day, 7 days) to groups (n=6 mice per group) of C57BLK/6-m wild type mice of the same age as their obese (ob/ob or db/db) counterparts. The effects of the peptides on body weight gain, food and water intake, glucose homeostasis, serum insulin levels, and ability to thermoregulate were examined.

In the case of “D I L Q Q L D V S P E C (DILQQLDVSPEC; not fully specified (N-terminus)) [LEP(156–167)]”, in data set [1], the Cumulative food intake is on record as 40.3 ± 0.6 gm/mouse, the “Percent heavier (+) or lighter (−) than initial weight” value (shortened to “Percent heavier (+) or lighter”) is given as “+22.6%” and the “Weight gain (+) or loss (−)” value is recorded as “+5.7 g”. Besides, in data set [2], the “Weight gain and food intake vs vehicle” value is “continued to consume food and gain weight at a rate comparable to vehicle-injected control mice”.

Take “A V P I Q K V Q D D T K T L I (AVPIQKVQDDTKTLI) [LEP(21–35)]”: in data set [1], the Cumulative food intake worked out at 39.1 ± 1.0 gm/mouse, the “Percent heavier (+) or lighter” value is recorded as “+24.0%” and the “Weight gain (+) or loss (−)” value was “+6.2 g”. The “Body weight gain and food intake vs vehicle” value in data set [3] is recorded as “not significantly (i.e., P>0.05) different”.

Take “E A S L Y S T E V V A L S R L (EASLYSTEVVALSRL; not fully specified (N-terminus)) [LEP(136–150)]”: in data set [1], the Cumulative food intake turned out to be 38.7 ± 1.6 gm/mouse, the “Percent heavier (+) or lighter” value is given as “+25.6%” and the “Weight gain (+) or loss (−)” value is reported as “+5.4 g”. Further, the “Weight gain and food intake vs vehicle” value in data set [2] was “continued to consume food and gain weight at a rate comparable to vehicle-injected control mice”.

Take “D L L H L L A F S K S C S L P (DLLHLLAFSKSCSLP) [LEP(106–120)]”: in data set [1], the “Reduction of food intake” value was found to be 14.8%, the Weight loss came out at 12.0%, the Cumulative food intake is 34.5 ± 1.1^b gm/mouse and the “Percent heavier (+) or lighter” value is recorded as −12.0%. Further, in data set [1], the “Weight gain (+) or loss (−)” value was −6.1^a g and the “Food intake vs vehicle” value is “significantly (P=0.01) less than vehicle-injected control mice”. Further, in data set [2], the “Weight gain and food intake vs vehicle” value is “significantly (P<0.01) restricted weight gain and food intake”.

In the case of “Q K P E S L D G V L E A S L Y (QKPESLDGVLEASLY; not fully specified (N-terminus)) [LEP(126–140)]”, in data set [1], the “Reduction of food intake” value is 14.3%, the Weight loss was found to be 10.2%, the Cumulative food intake is recorded as 34.7 ± 1.3^b gm/mouse and the “Percent heavier (+) or lighter” value is reported as −10.2%. In data set [1], the “Weight gain (+) or loss (−)” value was −6.0^a g and the “Food intake vs vehicle” value is “significantly (P=0.01) less than vehicle-injected control mice”. The “Weight gain and food intake vs vehicle” value in data set [2] is “significantly (P<0.01) restricted weight gain and food intake”.

For “V S A K Q R V T G L D F I P G (VSAKQRVTGLDFIPG; not fully specified) [LEP(51–65)]”, in data set [1], the Cumulative food intake is listed as 40.7 ± 0.6 gm/mouse, the “Percent heavier (+) or lighter” value is “+25.0%” and the “Weight gain (+) or loss (−)” value was “+6.4 g”. Also, the “Body weight gain and food intake vs vehicle” value in data set [3] is recorded as “not significantly (i.e., P>0.05) different”.

Turning to “R I N D I S H T Q S V S A K Q (RINDISHTQSVSAKQ) [LEP(41–55)]”, in data set [1], the Cumulative food intake stood at 39.4 ± 1.5 gm/mouse, the “Percent heavier (+) or lighter” value is listed as “+27.6%” and the “Weight gain (+) or loss (−)” value was “+5.9 g”. The “Body weight gain and food intake vs vehicle” value in data set [3] is on record as “not significantly (i.e., P>0.05) different”.

Regarding `CC(C)C[C@@H](NC(=O)[C@H](CO)NC(=O)[C@H](CS)NC(=O)[C@@H](N)CO)C(=O)N1CCC[C@H]1C(=O)N[C@@H](CCC(N)=O)C(=O)N[C@H](C(N)=O)[C@@H](C)O` [[D-Leu-4]-OB3, Ser-Cys-Ser-[D-Leu]-Pro-Gln-Thr] (H-SCS[dL]PQT-NH2), the Toxic effects result in data set [4] is “no apparent toxic effects”.

As to SCHLPWA-NH2 [hOB3, S C H L P W A], the Toxic effects entry in data set [4] is recorded as “no apparent toxic effects”.

Regarding “SCSLPQT-NH2 [OB3, Ser-Cys-Ser-Leu-Pro-Gln-Thr]”, the Toxic effects result in data set [4] is on record as “no apparent toxic effects”.

Turning to “T K T L I K T I V T R I N D I (TKTLIKTIVTRINDI) [LEP(31–45)]”, in data set [1], the Cumulative food intake was 39.5 ± 0.6 gm/mouse, the “Percent heavier (+) or lighter” value is “+26.6%” and the “Weight gain (+) or loss (−)” value is recorded as “+6.6 g”. Moreover, in data set [3], the “Body weight gain and food intake vs vehicle” value was “not significantly (i.e., P>0.05) different”.
